According to patent publication US7700644B2, “Isoflavonoid dimers” (Novogen Research Pty Ltd, priority 2005, dated 2010):

How the values were obtained:
[1] = tested on: ovarian cancer cell line CP70; assay: In vitro cytotoxicity, MTT proliferation assay, CP70; type: cell-based, human; conditions: Homo sapiens
Protocol: (§1) The human pancreatic cancer cell line, HPAC (CRL-2119) was routinely cultured in 1:1 mixture DMEM (Sigma) plus Ham's F12 (Sigma) medium containing HEPES (15 mM), insulin (0.002 mg/ml), transferrin (0.005 mg/ml), hydrocortisone, (40 ng/ml), epidermal growth factor (10 ng/ml). The ovarian cancer cell line CP70 was obtained as a gift from Dr. Gil Mor (Yale University) and cultured in a 1:1 mixture DMEM plus Ham's F12 medium, and SKOV-3 was purchased from ATCC and cultured in McCoy's 5a medium. The breast cancer cell line MDA-MB-468 cultured in Leibovitz's L-15 medium.
(§2) All cultures were supplemented with 10% FCS(CSL, Australia), penicillin (100 U/ml), streptomycin ([…]), L-glutamine (2 mM) and sodium bicarbonate (1.2 g/L), and cultured at 37° C. in a humidified atmosphere of 5% CO2. All remaining cell lines were purchased from ATCC (Maryland, USA) except where noted.
(§3) IC50 values were determined for each cell line. Cells were seeded in 96-well plates at an appropriate cell density as determined from growth kinetics analysis. NFFs were cultured for 5 days and RK-13s for 24 hrs in the absence and presence of the test compounds. Cell proliferation was assessed after the addition of 20 μl of 3-4,5 dimethylthiazol-2,5-diphenyl tetrazolium bromide (MTT, 2.5 mg/ml in PBS, Sigma) for 3-4 hrs at 37° C. according to manufacturer's instructions. IC50 values were calculated from semi-log plots of % of control proliferation on the y-axis against log dose on the x-axis.

DU145 (Prostate) = assay: In vitro cytotoxicity, MTT proliferation assay, DU145; type: cell-based, human; conditions: Homo sapiens, DU-145
Protocol: as §1, §2, §3

HTB-138 (Glioma) = assay: In vitro cytotoxicity, MTT proliferation assay, HTB-138; type: cell-based, human; conditions: Homo sapiens; Glioma HTB-138
Protocol: as §1, §2, §3

NCI-H23 (Lung) = assay: In vitro cytotoxicity, MTT proliferation assay, NCI-H23; type: cell-based; conditions: Homo sapiens
Protocol: as §1, §2
as §3, with “NFFs were cultured for 5 days and RK-13s for 24 hrs in the absence and presence of the test compounds.” left out

HT-29 (Colorectal) = assay: In vitro cytotoxicity, MTT proliferation assay, HT-29; type: cell-based, human; conditions: Homo sapiens; Colorectal HT-29
Protocol: as §1, §2, §3

PGE2 synthesis = PGE2 synthesis in human monocytes incubated with LPS; type: cell-based; conditions: LPS 200 ng/mL, 18 hrs, dose responsive
Protocol: (§4) Human peripheral blood monocytes (from three separate individuals) were isolated from buffy coats by lymphoprep gradient separation of mononuclear cells followed by counter-current centrifugal elutriation (Demasi et al. 2000). The test compounds were dissolved in DMSO and added to fresh monocytes After 30 min, LPS was added to achieve a final concentration of 200 ng/mL. After incubation for 18 hrs at 37° C. in 5% CO2, supernatants were removed and PGE2, TXB2 (the stable hydrolysis product of TXA2) and TNFα production were measured by radioimmunoassay (RIA).

TNFα synthesis = TNFα synthesis in human monocytes incubated with LPS; type: cell-based; conditions: LPS 200 ng/mL, 18 hrs
Protocol: as §4

HPAC (Pancreatic) cells = assay: Chemosensitisation, combination with antineoplastic agent, HPAC; type: cell-based, human
Protocol: (§5) The utility of the dimeric compounds of the invention to act as a chemosensitiser when used in combination with an array of standard chemotherapeutic agents was assessed. Dimeric Cpd. 2 was applied to various colorectal and pancreatic cancer cell lines to investigate its synergy with standard chemotherapeutic agents including cisplatin, gemcitabine, paclitaxel, doxorubicin, camptothecin and topotecan.
(§6) The experiment as outlined in SOP-BD011 (Versions A and B) was used to screen three antineoplastic agents against a given cell line in any ‘one’ experiment (see for example Kanzawa et al., (1997)). The inherent design of the experiment allowed for three sequences of Cpd. 2 and an antineoplastic agent. • 1) Direct Sequence—Cells are treated with both Cpd. 2 and a single antineoplastic agent (combined) for 5 days. • 2) Cpd. 2 First (Forward) Sequence—Cells are treated for 24 hours with Cpd. 2 before replacing with a 24 hour antineoplastic agent treatment; drugs are then washed out and processed on Day 5. • 3) Reverse Sequence—The reverse order to experiment No. 2 above. i.e. a cytotoxin first sequence Results and Conclusions
All data was evaluated using the formulae of theoretic additivity incorporated into a three dimensional model, as described by Kanzawa et al. (1997). […]

HT-29 (Colorectal) cells = assay: Chemosensitisation, combination with antineoplastic agent, HT-29; type: cell-based, human; conditions: for synergy with Paclitaxel: Cpd. 2 1 μM and 2 μM
Protocol: as §5, §6
All data was evaluated using the formulae of theoretic additivity incorporated into a three dimensional model, as described by Kanzawa et al. (1997). This allows for simple data interpretation as values in excess of 10% are defined as ‘synergistic’ (depicted in grey) whilst those below −10% are defined as ‘antagonistic’ (depicted in black).

[2] = tested on: UV irradiation-induced skin oedema; assay: Murine model of UV irradiation-induced skin oedema; type: in vivo, female Skh:hr-1 albino mice; conditions: for Change in skin thickness (mean ± SD, ×0.01 mm): dorsal skin fold, topical 0.2 ml of 20 μM at 30 min, 2 h, 4 h
Description: Groups of 4-5 female Skh:hr-1 albino mice were irradiated with 1×3 MEdD (minimal edematous dose) of solar simulated UV radiation (SSUV). Solar-simulated ultraviolet radiation (SSUV) was provided by a planar bank of 6 UVA tube (Hitachi 40W F40T 10/BL, black light) and one UVB tube (Philips TL 40W/12RS) with radiation filtered through a sheet of 0.125 mm cellulose acetate (Eastman Chemical Products, Kingport, Tenn., USA) to give 2.96×10-4W/cm2 UVA and 1.59×10-5W/cm2 UVB. The distance of the UV lamp from the irradiance table surface was approximately 20 cm and temperature was controlled with an electric fan. During irradiation, the cages were rotated below the lights to reduce the variation in radiation intensity in different positions.
Either test compound (0.2 ml of a 20 μM solution) or vehicle (propylene glycol/ethanol/water 1:2:1) was applied to the irradiated dorsal skin at 30 min, 2 h and 4 h post-irradiation. Dorsal skin fold measurements were made with a spring micrometer prior to and at 24 hr and 48 h post-UV exposure. The difference in skin thickness pre- and post-exposure to UVR was calculated for each mouse, and the differences examined between test compound and vehicle control were analysed using an unpaired two-tailed t test.

[3] = Toxicity study, i/p administration in mice; type: in vivo; conditions: 50 mg/kg i/p daily
Protocol: In a small study, BALB/cnu/nu mice were administered with either Compound 2 (n=2) as a solution in 6% Tween 20:PBS at 50 mg/kg or an equivalent volume of vehicle (n=2), by i/p injection. Mice were weighed and observed for signs of toxicity daily using clinical monitoring sheets. On day 9, mice were killed by cervical dislocation, and the kidney, spleen and liver of each mouse were collected for histological assessment of toxicity.

COc1ccc(C23COc4c(ccc(O)c4C)C2C2c4ccc(O)c(C)c4OCC2c2cc(OC)c(OC)cc23)cc1OC (stereo not drawn) [Cpd. 2, 4,9-Dihydroxy-14,15-dimethoxy-12a-(3′,4′-dimethoxyphenyl)-3,10-dimethyl-2,11-dioxa-(1H,12H)-6b,6c,12a,16b-tetrahydronaphtho[1,2-g]chrysene]
IC50 [1]: 8.23 ± 3.73 µM
IC50 (DU145 (Prostate)): 8.84 ± 0.47 µM
IC50 (HTB-138 (Glioma)): 16.4 µM
IC50 (NCI-H23 (Lung)): 16.4 µM
IC50 (HT-29 (Colorectal)): 11.5 ± 6 µM
effect on PGE2 synthesis (PGE2 synthesis): induced
effect on induction of TNFα (TNFα synthesis): inhibited
synergy with Gemcitabine (HPAC (Pancreatic) cells; Cpd. 2 concentrations greater than 5 μM): Synergy was not observed
synergy with Gemcitabine (HPAC (Pancreatic) cells; simultaneously (A) or 24 hour sequences (B,C)): synergistic cytotoxicity
synergy with Doxorubicin (HT-29 (Colorectal) cells; Doxorubicin first (C)): no synergy
synergy with Doxorubicin (HT-29 (Colorectal) cells; combination (A) and forward (B) sequences): strong synergistic cytotoxicity
synergy with Paclitaxel (HT-29 (Colorectal) cells; combination (A)): strong synergy
synergy with Gemcitabine (HT-29 (Colorectal) cells; forward (A) and reverse (B) sequences, Cpd. 2 5 μM and 10 μM): synergistic cytotoxicity
synergy with Paclitaxel (HT-29 (Colorectal) cells; forward (B) and reverse (C) 24 hour sequences): Less significant regions of synergy
inhibition of skin oedema ([2]; 24 hrs post-irradiation): significantly inhibited
inhibition of skin oedema ([2]; 48 hrs post-irradiation): significantly inhibited
Change in skin thickness (mean ± SD, ×0.01 mm) ([2]; 24 hrs post-irradiation, vehicle 78 ± 23): 36 ± 22 ×0.01 mm
Change in skin thickness (mean ± SD, ×0.01 mm) ([2]; 48 hrs post-irradiation, vehicle 147 ± 37): 105 ± 16 ×0.01 mm
body weight gain vs vehicle ([3]; 9 days): no difference
clinical signs ([3]; 9 days): no abnormal clinical signs
histological assessment of toxicity (kidney, spleen, liver) ([3]; day 9): no histological evidence of toxicity
